Source: PubChem BioAssay (NCI)
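How tested: cells in 96-well plates exposed to compound for 48 hours at five concentrations. TGI denotes the concentration required for complete inhibition of growth.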

Experiments:
Experiment in all cases: growth of human tumour cells (NCI), 48 h
U251 CNS = test system: U251 CNS
DU-145 prostate = test system: DU-145 prostate
NCI-H460 lung = test system: NCI-H460 lung
NCI/ADR-RES ovarian = test system: NCI/ADR-RES ovarian
SK-MEL-28 melanoma = test system: SK-MEL-28 melanoma
MDA-MB-231 breast = test system: MDA-MB-231 breast
T-47D breast = test system: T-47D breast
SF-295 CNS = test system: SF-295 CNS
HL-60(TB) leukemia = test system: HL-60(TB) leukemia
MDA-MB-435 = test system: MDA-MB-435
MDA-N = test system: MDA-N
SR leukemia = test system: SR leukemia
OVCAR-4 ovarian = test system: OVCAR-4 ovarian
ACHN renal = test system: ACHN renal
HOP-92 NSCLC = test system: HOP-92 NSCLC
KM12 colon = test system: KM12 colon
NCI-H522 lung = test system: NCI-H522 lung
NCI-H23 lung = test system: NCI-H23 lung
M14 melanoma = test system: M14 melanoma
OVCAR-8 ovarian = test system: OVCAR-8 ovarian
MOLT-4 leukemia = test system: MOLT-4 leukemia
SNB-19 CNS = test system: SNB-19 CNS
CCRF-CEM leukemia = test system: CCRF-CEM leukemia
COLO 205 colon = test system: COLO 205 colon
SK-OV-3 ovarian = test system: SK-OV-3 ovarian
HCC-2998 colon = test system: HCC-2998 colon
HT29 colon = test system: HT29 colon
K-562 leukemia = test system: K-562 leukemia
NCI-H226 lung = test system: NCI-H226 lung
SNB-75 CNS = test system: SNB-75 CNS
SN12C renal = test system: SN12C renal
RXF 393 renal = test system: RXF 393 renal
UO-31 renal = test system: UO-31 renal
SF-268 CNS = test system: SF-268 CNS
OVCAR-3 ovarian = test system: OVCAR-3 ovarian
SK-MEL-5 melanoma = test system: SK-MEL-5 melanoma
HCT-15 colon = test system: HCT-15 colon
PC-3 prostate = test system: PC-3 prostate
MCF7 breast = test system: MCF7 breast
SW-620 colon = test system: SW-620 colon
HCT-116 colon = test system: HCT-116 colon
TK-10 renal = test system: TK-10 renal
A498 renal = test system: A498 renal
UACC-257 melanoma = test system: UACC-257 melanoma
HS 578T breast = test system: HS 578T breast
LOX IMVI melanoma = test system: LOX IMVI melanoma
A549 NSCLC = test system: A549 NSCLC

Measured: TGI

NC(=O)Oc1ccccc1
> 100 µM: U251 CNS | DU-145 prostate | NCI-H460 lung | NCI/ADR-RES ovarian | SK-MEL-28 melanoma | MDA-MB-231 breast | T-47D breast | SF-295 CNS | HL-60(TB) leukemia | MDA-MB-435 | MDA-N | SR leukemia | OVCAR-4 ovarian | ACHN renal | HOP-92 NSCLC | KM12 colon | NCI-H522 lung | NCI-H23 lung | M14 melanoma | OVCAR-8 ovarian | MOLT-4 leukemia | SNB-19 CNS | CCRF-CEM leukemia | COLO 205 colon | SK-OV-3 ovarian | HCC-2998 colon | HT29 colon | K-562 leukemia | NCI-H226 lung | SNB-75 CNS | SN12C renal | RXF 393 renal | UO-31 renal | SF-268 CNS | OVCAR-3 ovarian | SK-MEL-5 melanoma | HCT-15 colon | PC-3 prostate | MCF7 breast | SW-620 colon | HCT-116 colon | TK-10 renal | A498 renal | UACC-257 melanoma | HS 578T breast | LOX IMVI melanoma | A549 NSCLC
